This is an account of results in patent US11447480B2, “Compound exhibiting enteropeptidase inhibitory activity” (LG CHEM, LTD., priority 2018, dated 2022).

The target in the assay is Recombinant Human Enteropeptidase (Homo sapiens (Human), UniProt P98073). The experiment in a line: Enteropeptidase Inhibition Assay. The conditions noted are these: substrate Acetyl-Asp-Asp-Asp-Asp-Lys-AFC 30 μM, 30° C., 1 hour; Ki calculated from IC50 using Cheng-Prusoff equation. It is filed as biochemical. The protocol: Enteropeptidase Inhibition Assay
Recombinant Human Enteropeptidase, sequence (P98073 whole entry): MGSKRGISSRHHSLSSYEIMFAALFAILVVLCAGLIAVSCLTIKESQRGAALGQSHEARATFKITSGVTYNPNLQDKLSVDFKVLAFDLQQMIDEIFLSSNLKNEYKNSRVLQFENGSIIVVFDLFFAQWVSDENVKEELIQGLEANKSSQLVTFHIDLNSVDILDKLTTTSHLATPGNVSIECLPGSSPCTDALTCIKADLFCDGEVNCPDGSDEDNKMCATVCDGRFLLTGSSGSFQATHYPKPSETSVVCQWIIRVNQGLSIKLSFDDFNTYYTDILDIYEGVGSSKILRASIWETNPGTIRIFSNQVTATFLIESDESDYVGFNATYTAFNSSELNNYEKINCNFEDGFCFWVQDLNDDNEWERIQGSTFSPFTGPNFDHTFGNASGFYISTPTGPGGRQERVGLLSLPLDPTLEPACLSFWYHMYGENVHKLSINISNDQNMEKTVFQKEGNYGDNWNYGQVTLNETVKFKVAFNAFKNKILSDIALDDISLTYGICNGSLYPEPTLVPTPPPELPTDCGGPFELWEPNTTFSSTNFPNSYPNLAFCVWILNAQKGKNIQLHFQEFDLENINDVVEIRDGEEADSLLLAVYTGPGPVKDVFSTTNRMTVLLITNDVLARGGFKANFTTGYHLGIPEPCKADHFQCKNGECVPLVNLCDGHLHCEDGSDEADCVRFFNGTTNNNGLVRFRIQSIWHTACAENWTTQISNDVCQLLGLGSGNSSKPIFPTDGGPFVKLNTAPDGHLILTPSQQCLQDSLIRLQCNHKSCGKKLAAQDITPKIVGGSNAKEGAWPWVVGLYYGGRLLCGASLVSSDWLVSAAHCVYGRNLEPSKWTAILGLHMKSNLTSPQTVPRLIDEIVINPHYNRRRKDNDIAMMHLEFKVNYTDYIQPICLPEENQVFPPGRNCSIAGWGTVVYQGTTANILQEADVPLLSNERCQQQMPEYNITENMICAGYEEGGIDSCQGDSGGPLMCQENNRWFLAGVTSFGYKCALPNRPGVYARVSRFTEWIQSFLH
The inhibitory activity of the enteropeptidase inhibitor synthesized using the purified Recombinant Human Enteropeptidase and the substrate Acetyl-Asp-Asp-Asp-Asp-Lys-AFC (BioVision) was measured. 7.2 ng/mL of Enteropeptidase diluted with a buffer (20 mM Tris, 50 mM NaCl, pH 7.5) in a 96 well plate (Costar), 30 μM of Acetyl-Asp-Asp-Asp-Asp-Lys-AFC, several concentrations of Enteropeptidase inhibitors (1% DMSO concentration) were dispensed such that a final volume was 100 μL, and then the enzyme reaction was carried out at 30° C. for 1 hour. At this time, 1% DMSO, a substrate and Enteropeptidase instead of the compound were dispensed onto positive control wells, and 1% DMSO and a substrate were dispensed onto negative control wells. The enzyme reaction was […] using an excitation wavelength of 380 nm and an emission wavelength of 500 nm in a fluorescence spectrometer, and then the rate of increase in fluorescence (milli-units per min) between 20 and 60 minutes was measured.
The fluorescence measurement values reduced by the inhibitor diluted at each concentration were converted into relative values % of the positive control group (100% reactivity) and the negative control group (0% reactivity), and used to calculate IC50 values. IC50 is the concentration of the inhibitor that inhibits the enzyme activity by 50%, and was calculated using PRISM (GraphPad). Ki values were calculated from the IC50 values using Cheng-Prusoff equation.

What is called Ki is the dissociation constant of the complex between target and ligand, obtained from inhibition or displacement.

The structures appear in SMILES notation.

Consider `COC(=O)CCCN(C)c1nc2ccc(C(=O)Oc3ccc(C(=N)N)cc3F)cc2s1` [Example 71, 4-Carbamimidoyl-2-fluorophenyl 2-((4-methoxy-4-oxobutyl)(methyl)amino)benzo[d]thiazole-6-carboxylate], for which the Ki was 1.1 nM.
Under `CN(CC(C)(C)C(=O)O)c1nc2ccc(C(=O)Oc3ccc(C(=N)N)cc3)cc2s1` [Example 86, 3-((6-((4-Carbamimidoylphenoxy)carbonyl)benzo[d]thiazol-2-yl)(methyl)amino)-2,2-dimethylpropanoic Acid] stands 10 nM; under `CCN(CCC(=O)Nc1ccc(C(=O)OC(C)(C)C)cc1)c1ncc(C(=O)Oc2ccc(C(=N)N)cc2F)s1` [Example 52, 4-Carbamimidoyl-2-fluorophenyl 2-((3-((4-(tert-butoxycarbonyl)phenyl)amino)-3-oxopropyl)(ethyl)amino)thiazole-5-carboxylate], 82 nM.
Turning to `COC(=O)CCCN(C)C(=O)C1CCN(c2ncc(C(=O)Oc3ccc(C(=N)N)cc3F)s2)CC1` [Example 41, 4-Carbamimidoyl-2-fluorophenyl 2-(4-((4-methoxy-4-oxobutyl)(methyl)carbamoyl)piperidin-1-yl)thiazole-5-carboxylate], the inhibition constant (Ki) was 1.8 nM.
In the case of `CN(CCCC(=O)O)c1nc2ccc(C(=O)Oc3ccc(C(=N)N)cc3F)cc2s1` [Example 76, 4-((6-((4-Carbamimidoyl-2-fluorophenoxy)carbonyl)benzo[d]thiazol-2-yl)(methyl)amino)butanoic Acid] it was 0.57 nM.
Under `COC(=O)CCCN(C)C(=O)C1CCN(c2ncc(C(=O)Oc3ccc(C(=N)N)cc3)s2)CC1` [Example 31, 4-Carbamimidoylphenyl 2-(4-((4-methoxy-4-oxobutyl)(methyl)carbamoyl)piperidin-1-yl)thiazole-5-carboxylate] stands 17 nM; under `CCN(CCC(=O)O)c1nc2ccc(C(=O)Oc3ccc(C(=N)N)cc3)cc2s1` [Example 66, 3-((6-((4-Carbamimidoylphenoxy)carbonyl)benzo[d]thiazol-2-yl)(ethyl)amino)propanoic Acid], 4.8 nM.
In the case of `COC(=O)CCNc1nc2ccc(C(=O)Oc3ccc(C(=N)N)cc3)cc2s1` [Example 59, 4-Carbamimidoylphenyl 2-((3-methoxy-3-oxopropyl)amino)benzo[d]thiazole-6-carboxylate] it was 14 nM; in that of `CCn1/c(=N/CC(C)(C)C(=O)O)sc2cc(C(=O)Oc3ccc(C(=N)N)cc3F)ccc21` [Example 88, (Z)-3-((6-((4-Carbamimidoyl-2-fluorophenoxy)carbonyl)-3-ethylbenzo[d]thiazole-2(3H)-ylidine)amino)-2,2-dimethylpropanoic Acid], 0.16 nM.
As to `N=C(N)c1ccc(OC(=O)c2cnc(N3CCC(C(=O)O)CC3)s2)c(F)c1` [Example 7, 1-(5-((4-Carbamimidoyl-2-fluorophenoxy)carbonyl)thiazol-2-yl)piperidine-4-carboxylic Acid], the Ki is 0.6 nM.
In the case of `COC(=O)CCNc1ncc(C(=O)Oc2ccc(C(=N)N)cc2)s1` [Example 10, 4-Carbamimidoylphenyl 2-((3-methoxy-3-oxopropyl)amino)thiazole-5-carboxylate] it was 11 nM; in that of `N=C(N)c1ccc(OC(=O)c2cnc(N3CCC(C(=O)NCCC(=O)O)CC3)s2)c(F)c1` [Example 43, 3-(1-(5-((4-Carbamimidoyl-2-fluorophenoxy)carbonyl)thiazol-2-yl)piperidine-4-carboxamido)propanoic Acid], 1.7 nM; in that of `CCN(CCC(=O)OC)c1ncc(C(=O)Oc2ccc(C(=N)N)cc2)s1` [Example 12, 4-Carbamimidoylphenyl 2-(ethyl(3-methoxy-3-oxopropyl)amino)thiazole-5-carboxylate], 9.7 nM.
Under `COC(=O)CCCN(C)c1nc2ccc(C(=O)Oc3ccc(C(=N)N)cc3)cc2s1` [Example 63, 4-Carbamimidoylphenyl 2-((4-methoxy-4-oxobutyl)(methyl)amino)benzo[d]thiazole-6-carboxylate] stands 13 nM; under `N=C(N)c1ccc(OC(=O)c2cnc(N3CCC(C(=O)N[C@@H](CC(=O)O)C(=O)O)CC3)s2)cc1` [Example 25], 4.7 nM.
With `CN(CCC(=O)O)c1nc2ccc(C(=O)Oc3ccc(C(=N)N)cc3)cc2s1` [Example 62, 3-((6-((4-Carbamimidoylphenoxy)carbonyl)benzo[d]thiazol-2-yl)(methyl)amino)propanoic Acid], the Ki was 4.3 nM.
In the case of `COC(=O)C1CCN(c2nc3ccc(C(=O)Oc4ccc(C(=N)N)cc4)cc3s2)CC1` [Example 57, 4-Carbamimidoylphenyl 2-(4-(methoxycarbonyl)piperidin-1-yl)benzo[d]thiazole-6-carboxylate] it was 13 nM; in that of `N=C(N)c1ccc(OC(=O)c2cnc(N3CCC(C(=O)Nc4ccccc4)CC3)s2)cc1` [Example 27, 4-Carbamimidoylphenyl 2-(4-(phenylcarbamoyl)piperidin-1-yl)thiazole-5-carboxylate], 12 nM.
In the case of `CC(C)(CNC(=O)C1CCN(c2ncc(C(=O)Oc3ccc(C(=N)N)cc3)s2)CC1)C(=O)O` [Example 36] it was 9.7 nM.
Under `COC(=O)CCCN(C)c1ncc(C(=O)Oc2ccc(C(=N)N)cc2)s1` [Example 11, 4-Carbamimidoylphenyl 2-((4-methoxy-4-oxobutyl)(methyl)amino)thiazole-5-carboxylate] stands 21 nM; under `N=C(N)c1ccc(OC(=O)c2ccc3nc(NCCC(=O)O)sc3c2)cc1` [Example 65, 3-((6-((4-Carbamimidoylphenoxy)carbonyl)benzo[d]thiazol-2-yl)amino)propanoic Acid], 5.7 nM; under `COC(=O)C1CCN(c2ncc(C(=O)Oc3ccc(C(=N)N)cc3F)s2)CC1` [Example 4, 4-Carbamimidoyl-2-fluorophenyl 2-(4-(methoxycarbonyl)piperidin-1-yl)thiazole-5-carboxylate], 0.92 nM.
In the case of `COC(=O)C(C)(C)CNC(=O)C1CCN(c2ncc(C(=O)Oc3ccc(C(=N)N)cc3)s2)CC1` [Example 32, 4-Carbamimidoylphenyl 2-(4-((3-methoxy-2,2-dimethyl-3-oxopropyl)carbamoyl)piperidin-1-yl)thiazole-5-carboxylate], the Ki was 18 nM.
In the case of `N=C(N)c1ccc(OC(=O)c2ccc3nc(N4CCC(C(=O)O)CC4)sc3c2)cc1` [Example 58, 1-(6-((4-Carbamimidoylphenoxy)carbonyl)benzo[d]thiazol-2-yl)piperidine-4-carboxylic Acid] it was 7.4 nM; in that of `COC(=O)CNC(=O)C1CCN(c2ncc(C(=O)Oc3ccc(C(=N)N)cc3)s2)CC1` [Example 29, 4-Carbamimidoylphenyl 2-(4-((2-methoxy-2-oxoethyl)carbamoyl)piperidin-1-yl)thiazole-5-carboxylate], 18 nM.
Under `N=C(N)c1ccc(OC(=O)c2cnc(N3CCC(C(=O)NCC(=O)O)CC3)s2)c(F)c1` [Example 42, (1-(5-((4-Carbamimidoyl-2-fluorophenoxy)carbonyl)thiazol-2-yl)piperidine-4-carbonyl)glycine] stands 1 nM.
Turning to `CC(C)(CNc1nc2ccc(C(=O)Oc3ccc(C(=N)N)cc3)cc2s1)C(=O)O` [Example 73, 3-((6-((4-Carbamimidoylphenoxy)carbonyl)benzo[d]thiazol-2-yl)amino)-2,2-dimethylpropanoic Acid], the Ki was 0.89 nM.
